From the supplement of paper PMC10307832

Tests used:
Assay in all cases: relative viability (nuclei count vs DMSO), 5 days (fraction); higher = more cells survive
LOU-NH91 = system: LOU-NH91
Summary of the method: (§1)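 Relative viability divides the nuclei count in treated wells by that in vehicle wells. Lung cancer cell lines were seeded in 1536-well plates, dosed by pin tool the next day, and fixed and stained after 5 days in one step with final 0.05% Triton X-100, 1% formaldehyde and 1 ug/ml Hoechst. Dosing was a single drug or a fixed anchor-drug dose plus five library-drug doses (not always all listed) in √10 steps, and values are medians of duplicate plates imaged at 4×.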

201T = system: 201T
Summary of the method: as §1

LK-2 = system: LK-2
Summary of the method: as §1

PC-3 [JPC-3] = system: PC-3 [JPC-3]
Summary of the method: as §1

COR-L23 = system: COR-L23
Summary of the method: as §1

NCI-H23 = system: NCI-H23
Summary of the method: as §1

NCI-H1793 = system: NCI-H1793
Summary of the method: as §1

LCLC-97TM1 = system: LCLC-97TM1
Summary of the method: as §1

NCI-H1651 = system: NCI-H1651
Summary of the method: as §1

UMC-11 = system: UMC-11
Summary of the method: as §1

NCI-H838 = system: NCI-H838
Summary of the method: as §1

NCI-H2347 = system: NCI-H2347
Summary of the method: as §1

HARA = system: HARA
Summary of the method: as §1

RERF-LC-KJ = system: RERF-LC-KJ
Summary of the method: as §1

NCI-H520 = system: NCI-H520
Summary of the method: as §1

NCI-H647 = system: NCI-H647
Summary of the method: as §1

NCI-H2405 = system: NCI-H2405
Summary of the method: as §1

LXF-289 = system: LXF-289
Summary of the method: as §1

HCC-78 = system: HCC-78
Summary of the method: as §1

A-427 = system: A-427
Summary of the method: as §1

NCI-H1650 = system: NCI-H1650
Summary of the method: as §1

`Cc1cn(-c2cc(NC(=O)c3ccc(C)c(Nc4nccc(-c5cccnc5)n4)c3)cc(C(F)(F)F)c2)cn1` [Nilotinib] + CC1(C)CCC(c2ccc(Cl)cc2)=C(CN2CCN(c3ccc(C(=O)NS(=O)(=O)c4ccc(N[C@H](CCN5CCOCC5)CSc5ccccc5)c(S(=O)(=O)C(F)(F)F)c4)cc3)CC2)C1 [Navitoclax] (partner 0.5 µM) showed a relative viability (LOU-NH91; first compound 0.001 µM) of 0.644, a relative viability (LOU-NH91; first compound 0.003162 µM) of 0.685 and a relative viability (LOU-NH91; first compound 0.01 µM) of 0.846. The relative viability (LOU-NH91; first compound 0.03162 µM) was 0.608, the relative viability (LOU-NH91; first compound 0.1 µM) was 0.658 and the relative viability (201T; first compound 0.001 µM) was 1.22. The relative viability (201T; first compound 0.003162 µM) was 1.29, the relative viability (201T; first compound 0.01 µM) was 1.25 and the relative viability (201T; first compound 0.1 µM) was 1.21. The relative viability (LK-2; first compound 0.001 µM) was 0.759, the relative viability (LK-2; first compound 0.003162 µM) was 0.939 and the relative viability (LK-2; first compound 0.01 µM) was 1. It also gave a relative viability (LK-2; first compound 0.03162 µM) of 0.743, a relative viability (LK-2; first compound 0.1 µM) of 0.945 and a relative viability (PC-3 [JPC-3]; first compound 0.001 µM) of 0.699. The relative viability (PC-3 [JPC-3]; first compound 0.003162 µM) was 1, the relative viability (PC-3 [JPC-3]; first compound 0.01 µM) was 0.888 and the relative viability (PC-3 [JPC-3]; first compound 0.03162 µM) was 0.666. The relative viability (PC-3 [JPC-3]; first compound 0.1 µM) was 0.741, the relative viability (COR-L23; first compound 0.001 µM) was 0.835 and the relative viability (COR-L23; first compound 0.003162 µM) was 1.17. The relative viability (COR-L23; first compound 0.01 µM) was 1.18, the relative viability (COR-L23; first compound 0.03162 µM) was 0.953 and the relative viability (COR-L23; first compound 0.1 µM) was 0.864. For the same compound, the relative viability (NCI-H23; first compound 0.001 µM) was 0.78, the relative viability (NCI-H23; first compound 0.003162 µM) was 0.839 and the relative viability (NCI-H23; first compound 0.01 µM) was 1.09. The relative viability (NCI-H23; first compound 0.03162 µM) was 0.605, the relative viability (NCI-H23; first compound 0.1 µM) was 0.721 and the relative viability (NCI-H1793; first compound 0.003162 µM) was 0.452. For the same compound, the relative viability (NCI-H1793; first compound 0.01 µM) was 0.587, the relative viability (NCI-H1793; first compound 0.03162 µM) was 0.385 and the relative viability (NCI-H1793; first compound 0.1 µM) was 0.275. For the same compound, the relative viability (LCLC-97TM1; first compound 0.001 µM) was 0.322, the relative viability (LCLC-97TM1; first compound 0.003162 µM) was 0.425 and the relative viability (LCLC-97TM1; first compound 0.01 µM) was 0.478. It also gave a relative viability (LCLC-97TM1; first compound 0.03162 µM) of 0.445, a relative viability (LCLC-97TM1; first compound 0.1 µM) of 0.379 and a relative viability (NCI-H1651; first compound 0.001 µM) of 1.05. It also gave a relative viability (NCI-H1651; first compound 0.003162 µM) of 1.56, a relative viability (NCI-H1651; first compound 0.01 µM) of 1.43 and a relative viability (NCI-H1651; first compound 0.03162 µM) of 0.782. For the same compound, the relative viability (NCI-H1651; first compound 0.1 µM) was 1.21, the relative viability (UMC-11; first compound 0.001 µM) was 0.303 and the relative viability (UMC-11; first compound 0.003162 µM) was 0.303. The relative viability (UMC-11; first compound 0.01 µM) was 0.317, the relative viability (UMC-11; first compound 0.1 µM) was 0.301 and the relative viability (NCI-H838; first compound 0.001 µM) was 1.09. For the same compound, the relative viability (NCI-H838; first compound 0.003162 µM) was 1.42, the relative viability (NCI-H838; first compound 0.01 µM) was 1.54 and the relative viability (NCI-H838; first compound 0.03162 µM) was 1.05. It also gave a relative viability (NCI-H838; first compound 0.1 µM) of 1.15, a relative viability (NCI-H2347; first compound 0.001 µM) of 0.81 and a relative viability (NCI-H2347; first compound 0.003162 µM) of 0.959. For the same compound, the relative viability (NCI-H2347; first compound 0.01 µM) was 1.05, the relative viability (NCI-H2347; first compound 0.03162 µM) was 0.662 and the relative viability (NCI-H2347; first compound 0.1 µM) was 0.695. The relative viability (HARA; first compound 0.001 µM) was 1.07, the relative viability (HARA; first compound 0.003162 µM) was 1.26 and the relative viability (HARA; first compound 0.01 µM) was 1.24. It also gave a relative viability (HARA; first compound 0.03162 µM) of 1.06, a relative viability (HARA; first compound 0.1 µM) of 1.15 and a relative viability (RERF-LC-KJ; first compound 0.001 µM) of 1.07. The relative viability (RERF-LC-KJ; first compound 0.003162 µM) was 0.949, the relative viability (RERF-LC-KJ; first compound 0.01 µM) was 1.24 and the relative viability (RERF-LC-KJ; first compound 0.03162 µM) was 1.15. For the same compound, the relative viability (RERF-LC-KJ; first compound 0.1 µM) was 1.08, the relative viability (NCI-H520; first compound 0.001 µM) was 1.13 and the relative viability (NCI-H520; first compound 0.01 µM) was 1.11. For the same compound, the relative viability (NCI-H520; first compound 0.03162 µM) was 0.96, the relative viability (NCI-H520; first compound 0.1 µM) was 1.15 and the relative viability (NCI-H647; first compound 0.001 µM) was 0.952. The relative viability (NCI-H647; first compound 0.003162 µM) was 1.42, the relative viability (NCI-H647; first compound 0.01 µM) was 1.26 and the relative viability (NCI-H647; first compound 0.03162 µM) was 0.997. The relative viability (NCI-H647; first compound 0.1 µM) was 0.974, the relative viability (NCI-H2405; first compound 0.001 µM) was 0.733 and the relative viability (NCI-H2405; first compound 0.003162 µM) was 0.761. It also gave a relative viability (NCI-H2405; first compound 0.01 µM) of 0.764, a relative viability (NCI-H2405; first compound 0.03162 µM) of 0.596 and a relative viability (NCI-H2405; first compound 0.1 µM) of 0.439. It also gave a relative viability (LXF-289; first compound 0.001 µM) of 0.904, a relative viability (LXF-289; first compound 0.003162 µM) of 1.09 and a relative viability (LXF-289; first compound 0.01 µM) of 1.05. It also gave a relative viability (LXF-289; first compound 0.03162 µM) of 0.855, a relative viability (LXF-289; first compound 0.1 µM) of 0.878 and a relative viability (HCC-78; first compound 0.001 µM) of 0.876. It also gave a relative viability (HCC-78; first compound 0.003162 µM) of 0.692, a relative viability (HCC-78; first compound 0.01 µM) of 0.945 and a relative viability (HCC-78; first compound 0.03162 µM) of 0.724. It also gave a relative viability (HCC-78; first compound 0.1 µM) of 0.737, a relative viability (A-427; first compound 0.001 µM) of 0.984 and a relative viability (A-427; first compound 0.01 µM) of 0.998. It also gave a relative viability (A-427; first compound 0.03162 µM) of 0.908, a relative viability (A-427; first compound 0.1 µM) of 0.923 and a relative viability (NCI-H1650; first compound 0.001 µM) of 1.15. For the same compound, the relative viability (NCI-H1650; first compound 0.003162 µM) was 1.26, the relative viability (NCI-H1650; first compound 0.01 µM) was 1.45 and the relative viability (NCI-H1650; first compound 0.03162 µM) was 0.99. It also gave a relative viability (NCI-H1650; first compound 0.1 µM) of 1.11.
